# Active and inactive are the calls of the source.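 How the source made its calls: active means mean IC50 at or below a set limit; inactive means the rest.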
# Tested on: 697 B-cell NF-kB luciferase reporter, PMA/ionomycin, 16 h
# Assay: B-cell antigen receptor NF-kB activation inhibitors, SAR follow-up, 697 B cells, luminescence, set 3 (AID 504641)
row,Compound,IC50
1,CNC(=O)CCc1nc(-c2ccc(OC)cc2)no1,> 80000 nM (inactive)
2,CC(C)(C)c1ccc(-c2noc(CCC(=O)N3CCOCC3)n2)cc1,24300 nM (inactive)
3,COc1cccc(NC(=O)CCc2nc(-c3ccc(C(C)(C)C)cc3)no2)c1,< 160 nM
4,CNC(=O)CCc1nc(-c2ccc(C)cc2)no1,> 80000 nM (inactive)
5,CNC(=O)CCc1nc(-c2ccc(F)cc2)no1,> 80000 nM (inactive)
6,CC(C)(C)c1ccc(-c2noc(CCC(=O)Nc3cccnc3)n2)cc1,160 nM
7,CCOc1ccc(-c2nc(CSCC(=O)NC3CCCC(C)C3C)c(C)o2)cc1 (stereo not drawn),> 80000 nM (inactive)
8,C=CCNC(=O)CCc1nc(-c2ccc(C(C)(C)C)cc2)no1,190 nM
9,COc1ccccc1NC(=O)CCc1nc(-c2ccc(C(C)(C)C)cc2)no1,< 160 nM
10,CCOc1ccc(-c2nc(CSCC(=O)NC3CCCC3)c(C)o2)cc1,25700 nM (inactive)
11,CNC(=O)CCc1nc(-c2ccc(Cl)cc2)no1,> 80000 nM (inactive)
12,CC(C)(C)c1ccc(-c2noc(CCC(=O)N3CCCCC3)n2)cc1,30300 nM (inactive)
13,CCOc1ccc(-c2nc(CSCC(=O)N3CCCC3)c(C)o2)cc1,> 80000 nM (inactive)
14,CC(C)(C)c1ccc(-c2noc(CCC(=O)NCC3CCCO3)n2)cc1 (stereo not drawn),590 nM
15,CC(C)CNC(=O)CCc1nc(-c2ccc(C(C)(C)C)cc2)no1,240 nM
16,CSc1ccc(-c2nc(CSCC(=O)NC3CC3)c(C)o2)cc1,1360 nM
17,CC(C)(C)c1ccc(-c2noc(CCC(=O)NCc3ccco3)n2)cc1,200 nM
18,CC(C)(C)c1ccc(-c2noc(CCC(=O)NC3CCCCC3)n2)cc1,400 nM
19,CC(C)NC(=O)CCc1nc(-c2ccc(C(C)(C)C)cc2)no1,280 nM
20,CCCNC(=O)CSCc1nc(-c2ccc(SC)cc2)oc1C,> 80000 nM (inactive)
21,CC(C)(C)c1ccc(-c2noc(CCC(=O)Nc3ccccc3)n2)cc1,< 160 nM
22,CCOc1ccc(-c2noc(CCC(=O)NC)n2)cc1,> 80000 nM (inactive)
23,CCOc1ccccc1NC(=O)CCc1nc(-c2ccc(C(C)(C)C)cc2)no1,< 160 nM
24,CCOc1ccc(-c2nc(CSCC(=O)N3CCC(C)CC3)c(C)o2)cc1,70400 nM (inactive)
25,CC(C)(C)c1ccc(-c2noc(CCC(=O)NC3CCCC3)n2)cc1,360 nM
26,CC(C)(C)c1ccc(-c2noc(CCC(=O)Nc3cccc([N+](=O)[O-])c3)n2)cc1,< 160 nM
27,CCCNC(=O)CCc1nc(-c2ccc(C(C)(C)C)cc2)no1,190 nM

# Second part, the compound after the results:
row,IC50,Compound
1,36500 nM (inactive),CCOc1ccc(-c2nc(CSCC(=O)NCCC3=CCCCC3)c(C)o2)cc1
2,310 nM,CCOc1ccc(-c2nc(CSCC(=O)NCCOC)c(C)o2)cc1
3,2380 nM,CCOc1ccc(-c2nc(CSCC(=O)NCc3cccnc3)c(C)o2)cc1
4,8640 nM,CCCCNC(=O)CSCc1nc(-c2ccc(OCC)cc2)oc1C
5,6750 nM,CCOc1ccc(-c2nc(CSCC(=O)NCc3ccccc3)c(C)o2)cc1
6,10300 nM,CCOCCCNC(=O)CSCc1nc(-c2ccc(OCC)cc2)oc1C
7,18100 nM,CCOc1ccc(-c2nc(CSCC(=O)NCCc3ccc(C)cc3)c(C)o2)cc1
8,> 80000 nM (inactive),CCOc1ccc(-c2nc(CSCC(=O)NCCc3ccc(Cl)cc3)c(C)o2)cc1
9,7840 nM,CCOc1ccc(-c2nc(CSCC(=O)NCC3CCCO3)c(C)o2)cc1 (stereo not drawn)
10,3560 nM,CCOc1ccc(-c2nc(CSCC(=O)NCCc3ccccc3)c(C)o2)cc1
11,1240 nM,CCOc1ccc(-c2nc(CSCC(=O)NC(C)C)c(C)o2)cc1
12,12100 nM,CCOc1ccc(-c2nc(CSCC(=O)NCCN3CCCC3)c(C)o2)cc1
13,46900 nM (inactive),CCOc1ccc(-c2nc(CSCC(=O)NC(C)CC)c(C)o2)cc1 (stereo not drawn)
14,650 nM,CCOc1ccc(-c2nc(CSCC(=O)NCc3cccs3)c(C)o2)cc1
15,1510 nM,CCCNC(=O)CSCc1nc(-c2ccc(OCC)cc2)oc1C
16,2770 nM,CCOc1ccc(-c2nc(CSCC(=O)NCc3ccc(C)cc3)c(C)o2)cc1

# — PubChem BioAssay AID504641 (Sanford-Burnham Center for Chemical Genomics, 2011)
